Series [1] has as its system U2OS. Put plainly: Induction of telomere architecture perturbations in human U2OS cells assessed as displacement of hPOT1 from telomeres at cytotoxic IC50 level after 12 hrs by chromatin immunoprecipitation method. The format is functional.
The subject of series [2] is U2OS. Put plainly: Induction of telomere architecture perturbations in human U2OS cells assessed as displacement of TRF2 from telomeres at cytotoxic IC50 level after 24 hrs by chromatin immunoprecipitation method. The format is functional.
Series [3] relates to U2OS. Nature of the series: Induction of telomere architecture perturbations in human U2OS cells assessed as increase in DNA topoisomerase 1 binding to telomeric sequences at cytotoxic IC50 level after 6 hrs by chromatin immunoprecipitation method. The series is classed as functional.
For series [4], the system named is U2OS. Nature of the series: Induction of telomere architecture perturbations in human U2OS cells assessed as increase in DNA topoisomerase 1 binding to telomeric sequences at cytotoxic IC50 level after 12 hrs by chromatin immunoprecipitation method. The series is classed as functional.
Series [5] has as its system U2OS. Put plainly: Induction of telomere architecture perturbations in human U2OS cells assessed as displacement of human DNA topoisomerase 1 from telomeres at cytotoxic IC50 level after 24 hrs by chromatin immunoprecipitation method. The series is classed as functional.
The nature of series [6]: Solubility in water at 25 degC sonicated for 10 mins by HPLC method. The format is physicochemical.
A short description of series [7]: Growth inhibition of human NCI60 cells. The format is functional. The following applies: Homo sapiens, NCI60.
For series [8], the system named is U2OS. Nature of the series: Induction of apoptosis in human U2OS cells assessed as increase in caspase-3 catalytic activity at cytotoxic IC50 level after 72 hrs. The series is classed as functional.
Series [9] concerns the target Cyclin-dependent kinase 1 (Homo sapiens, UniProt P06493). Nature of the series: Inhibition of CDC2 kinase (unknown origin) using histone H1 and [32P]-ATP.
Series [10] can be described thus: Inhibition of purified recombinant glutathione-S-transferase tagged cdc25 phosphatase (unknown origin) assessed as reduction in p-nitrophenylphosphate phosphatase activity by colorimetry. Further details: species or system Homo sapiens.

Experimental findings from ChEMBL document CHEMBL3414534, “Water-soluble isoindolo[2,1-a]quinoxalin-6-imines: in vitro antiproliferative activity and molecular mechanism(s) of action” (Eur J Med Chem, 2015) are described below.

In brackets after ≈: the same amount, converted by molar mass. A value given as a limit tells only on which side of the number the result lay.

Chain of Cyclin-dependent kinase 1 (P06493 whole entry): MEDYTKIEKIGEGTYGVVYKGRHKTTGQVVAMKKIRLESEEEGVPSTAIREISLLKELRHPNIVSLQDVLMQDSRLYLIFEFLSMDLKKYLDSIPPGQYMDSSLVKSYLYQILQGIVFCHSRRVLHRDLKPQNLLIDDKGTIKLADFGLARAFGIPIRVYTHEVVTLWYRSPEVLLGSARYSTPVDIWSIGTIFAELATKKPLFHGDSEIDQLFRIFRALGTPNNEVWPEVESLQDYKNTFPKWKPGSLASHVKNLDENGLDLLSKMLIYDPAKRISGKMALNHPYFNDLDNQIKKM

Consider `COc1cc2cn3c4ccc(O)cc4[nH]c(=N)c3c2cc1OC`, for which the Activity is reported as -88% in the series on U2OS [1], -80% in the series with U2OS [2], 64% with U2OS [3] and 309% in the series on U2OS [4]. In the series with U2OS [5], the “inhibition (INH)” value turned out to be 57%. In addition, the solubility (usually how much of the substance goes into solution per volume) at 10 min in series [6] was 24.5 mM (≈ 7580 µg/mL). The GI50 – broadly, the concentration that inhibits growth by half – in [7] is below 3.24 µM. Also, in the series with U2OS [8], the “fold change (FC)” value is given as 23.

For the compound `O=C(Cn1c2ccc(Br)cc2c2nc3ccccc3nc21)NNC(=S)NC1CCCCC1`, the IC50 (commonly the midpoint of a concentration-inhibition curve) turned out to be 70 µM in series [9] and 25 µM in series [10].
